Source: PubChem BioAssay AID2060882 (Molecular Pharmacology Branch, DTP, NCI, 2025)
Values joined by “and” are separate entries in the source; they are usually repeats but may differ in a detail not shown here. Equal entries are not always repeated.

Test system: 898857-211-R-J1-PDC complex spheroids, growth % test/control
Experiment: Anticancer human tumor 898857-211-R-J1-PDC patient-derived melanoma cell line growth inhibition [RAS]
Conditions: for IC50: curve of first compound; for viability, T/C: stronger effect = lower value
Method in brief: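 Multi-cell-type spheroids: tumor cells plus HUVEC endothelial cells and mesenchymal stem cells. RAS-pathway inhibitors were combined with targeted agents, each dosed in half-log steps down from clinical Cmax, or from 10 microM when Cmax was unknown.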

[1] = second compound 0.0316 µM, first compound 0.0316 µM
[2] = second compound 0.0316 µM, first compound 0.1 µM
[3] = second compound 0.0316 µM, first compound 0.316 µM
[4] = second compound 0.0316 µM, first compound 1 µM
[5] = second compound 0.0316 µM, first compound 3.16 µM
[6] = second compound 0.0316 µM, first compound 10 µM
[7] = second compound 0.1 µM, first compound 0.0316 µM
[8] = second compound 0.1 µM, first compound 0.1 µM
[9] = second compound 0.1 µM, first compound 0.316 µM
[10] = second compound 0.1 µM, first compound 1 µM
[11] = second compound 0.1 µM, first compound 3.16 µM
[12] = second compound 0.1 µM, first compound 10 µM
[13] = second compound 0.316 µM, first compound 0.0316 µM
[14] = second compound 0.316 µM, first compound 0.1 µM
[15] = second compound 0.316 µM, first compound 0.316 µM
[16] = second compound 0.316 µM, first compound 1 µM
[17] = second compound 0.316 µM, first compound 3.16 µM
[18] = second compound 0.316 µM, first compound 10 µM
[19] = second compound 1 µM, first compound 0.0316 µM
[20] = second compound 1 µM, first compound 0.1 µM
[21] = second compound 1 µM, first compound 0.316 µM
[22] = second compound 1 µM, first compound 1 µM
[23] = second compound 1 µM, first compound 3.16 µM
[24] = second compound 1 µM, first compound 10 µM
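Further: spheroids exposed to compound for seven days before readout.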
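Wherever viability, T/C is given: 100% = DMSO vehicle control wells.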

**Q.** What does the source list for `CC(C)n1nc(-c2ccc3oc(N)nc3c2)c2c(N)ncnc21` + CCn1c(-c2cc(N3CCN(C)CC3)cnc2C(C)OC)c2c3cc(ccc31)-c1csc(n1)CC(NC(=O)C1CC1C)C(=O)N1CCCC(N1)C(=O)OCC(C)(C)C2?
**A.** IC50 (second compound 0.000949 µM): 20.5 nM; IC50 (second compound 0.003 µM): 19.3 nM; IC50 (second compound 0.00949 µM): 17.3 nM; IC50 (second compound 0.03 µM): 13.7 nM; IC50 (second compound 0.0949 µM): 18.2 nM; IC50 (second compound 0.3 µM): 14.9 nM; viability, T/C (second compound 0.000949 µM, first compound 0.000316 µM): 98%; viability, T/C (second compound 0.000949 µM, first compound 0.001 µM): 82.6%; viability, T/C (second compound 0.000949 µM, first compound 0.00316 µM): 89.9%; viability, T/C (second compound 0.000949 µM, first compound 0.01 µM): 63.3%; viability, T/C (second compound 0.000949 µM, first compound 0.0316 µM): 41.1%; viability, T/C (second compound 0.000949 µM, first compound 0.1 µM): 16.7%; viability, T/C (second compound 0.003 µM, first compound 0.000316 µM): 100%; viability, T/C (second compound 0.003 µM, first compound 0.001 µM): 92.8%; viability, T/C (second compound 0.003 µM, first compound 0.00316 µM): 86.5%; viability, T/C (second compound 0.003 µM, first compound 0.01 µM): 69.3%; viability, T/C (second compound 0.003 µM, first compound 0.0316 µM): 35.6%; viability, T/C (second compound 0.003 µM, first compound 0.1 µM): 14.1%; viability, T/C (second compound 0.00949 µM, first compound 0.000316 µM): 92%; viability, T/C (second compound 0.00949 µM, first compound 0.001 µM): 88.3%; viability, T/C (second compound 0.00949 µM, first compound 0.00316 µM): 80.2%; viability, T/C (second compound 0.00949 µM, first compound 0.01 µM): 63.5%; viability, T/C (second compound 0.00949 µM, first compound 0.0316 µM): 35.4%; viability, T/C (second compound 0.00949 µM, first compound 0.1 µM): 15.7%; viability, T/C (second compound 0.03 µM, first compound 0.000316 µM): 97.4%; viability, T/C (second compound 0.03 µM, first compound 0.001 µM): 91.8%; viability, T/C (second compound 0.03 µM, first compound 0.00316 µM): 69.5%; viability, T/C (second compound 0.03 µM, first compound 0.01 µM): 57%; viability, T/C (second compound 0.03 µM, first compound 0.0316 µM): 35.2%; viability, T/C (second compound 0.03 µM, first compound 0.1 µM): 12.4%; viability, T/C (second compound 0.0949 µM, first compound 0.000316 µM): 109%; viability, T/C (second compound 0.0949 µM, first compound 0.001 µM): 108%; viability, T/C (second compound 0.0949 µM, first compound 0.00316 µM): 79.5%; viability, T/C (second compound 0.0949 µM, first compound 0.01 µM): 64.6%; viability, T/C (second compound 0.0949 µM, first compound 0.0316 µM): 38.5%; viability, T/C (second compound 0.0949 µM, first compound 0.1 µM): 15.1%; viability, T/C (second compound 0.3 µM, first compound 0.000316 µM): 103%; viability, T/C (second compound 0.3 µM, first compound 0.001 µM): 100%; viability, T/C (second compound 0.3 µM, first compound 0.00316 µM): 69.2%; viability, T/C (second compound 0.3 µM, first compound 0.01 µM): 56.2%; viability, T/C (second compound 0.3 µM, first compound 0.0316 µM): 40.2%; viability, T/C (second compound 0.3 µM, first compound 0.1 µM): 12.7%

**Q.** What does the source list for `Cc1nc(N2CCC3(CC2)COC(C)C3N)c(CO)nc1Sc1ccnc(N)c1Cl` (configuration not stated) + C=CC(=O)N1CCN(c2nc(OCC3CCCN3C)nc3c(F)c(-c4nc(N)cc(C)c4C(F)(F)F)c(Cl)cc23)C(C)C1?
**A.** IC50 (second compound 0.00316 µM): > 10000 nM; IC50 (second compound 0.01 µM): > 10000 nM; IC50 (second compound 0.0316 µM): > 10000 nM; IC50 (second compound 0.1 µM): > 10000 nM; IC50 (second compound 0.316 µM): > 10000 nM; IC50 (second compound 1 µM): > 10000 nM; viability, T/C (second compound 0.00316 µM, first compound 0.0316 µM): 101%; viability, T/C (second compound 0.00316 µM, first compound 0.1 µM): 92.4%; viability, T/C (second compound 0.00316 µM, first compound 0.316 µM): 89%; viability, T/C (second compound 0.00316 µM, first compound 1 µM): 82.2%; viability, T/C (second compound 0.00316 µM, first compound 3.16 µM): 98.5%; viability, T/C (second compound 0.00316 µM, first compound 10 µM): 92.1%; viability, T/C (second compound 0.01 µM, first compound 0.0316 µM): 97.7%; viability, T/C (second compound 0.01 µM, first compound 0.1 µM): 94.6%; viability, T/C (second compound 0.01 µM, first compound 0.316 µM): 80.8%; viability, T/C (second compound 0.01 µM, first compound 1 µM): 91%; viability, T/C (second compound 0.01 µM, first compound 3.16 µM): 96.8%; viability, T/C (second compound 0.01 µM, first compound 10 µM): 81.1%; viability, T/C [1]: 104%; viability, T/C [2]: 102%; viability, T/C [3]: 95.4%; viability, T/C [4]: 98.5%; viability, T/C [5]: 97.3%; viability, T/C [6]: 99.5%; viability, T/C [7]: 96.4%; viability, T/C [8]: 102%; viability, T/C [9]: 95.6%; viability, T/C [10]: 94%; viability, T/C [11]: 96.3%; viability, T/C [12]: 91.7%; viability, T/C [13]: 110%; viability, T/C [14]: 102%; viability, T/C [15]: 107%; viability, T/C [16]: 103%; viability, T/C [17]: 98.1%; viability, T/C [18]: 93.5%; viability, T/C [19]: 110%; viability, T/C [20]: 106%; viability, T/C [21]: 92.9%; viability, T/C [22]: 97.4%; viability, T/C [23]: 107%; viability, T/C [24]: 82.2%

**Q.** With `O=C(c1ccc(F)c(F)c1Nc1ccc(I)cc1F)N1CC(O)([C@@H]2CCCCN2)C1` as the compound, how does the viability, T/C (compound 0.00316 µM) read?
**A.** 56.5% [middle of 4 runs]

**Q.** And the viability, T/C (compound 0.01 µM)?
**A.** 40.4% (2×) and 26.7% and 33.1%

**Q.** And the viability, T/C (compound 0.0316 µM)?
**A.** 28.9% [middle of 4 runs]

**Q.** And the viability, T/C (compound 0.1 µM)?
**A.** 20.3% [middle of 4 runs]

**Q.** And the viability, T/C (compound 0.316 µM)?
**A.** 18.5% [middle of 4 runs]

**Q.** What about the viability, T/C (compound 1 µM) of the same compound?
**A.** 13.4% [middle of 4 runs]

**Q.** Which IC50 (second compound 0.0316 µM) does the source give for `CC(C)NCC(C(=O)N1CCN(c2ncnc3c2C(C)CC3O)CC1)c1ccc(Cl)cc1` (configuration not stated) + C#Cc1c(F)ccc2cc(O)cc(-c3ncc4c(N5CC6CCC(C5)N6)nc(OCC56CCCN5CC(F)C6)nc4c3F)c12 here?
**A.** > 10000 nM

**Q.** And the IC50 (second compound 0.1 µM)?
**A.** > 10000 nM

**Q.** And the IC50 (second compound 0.316 µM)?
**A.** > 10000 nM

**Q.** What about the IC50 (second compound 1 µM) of the same compound?
**A.** > 10000 nM

**Q.** What about the IC50 (second compound 3.16 µM) of the same compound?
**A.** > 10000 nM

**Q.** And the IC50 (second compound 10 µM)?
**A.** 132 nM

**Q.** What about the viability, T/C [1] of the same compound?
**A.** 100%

**Q.** And the viability, T/C [2]?
**A.** 89.4%

**Q.** And the viability, T/C [3]?
**A.** 103%

**Q.** And the viability, T/C [4]?
**A.** 80.8%

**Q.** And the viability, T/C [5]?
**A.** 73.6%

**Q.** And the viability, T/C [6]?
**A.** 67.6%

**Q.** What about the viability, T/C [7] of the same compound?
**A.** 116%

**Q.** What about the viability, T/C [8] of the same compound?
**A.** 104%

**Q.** And the viability, T/C [9]?
**A.** 98.5%

**Q.** What about the viability, T/C [10] of the same compound?
**A.** 88.2%

**Q.** And the viability, T/C [11]?
**A.** 85.2%

**Q.** And the viability, T/C [12]?
**A.** 61.4%

**Q.** And the viability, T/C [13]?
**A.** 101%

**Q.** And the viability, T/C [14]?
**A.** 103%

**Q.** What about the viability, T/C [15] of the same compound?
**A.** 104%

**Q.** What about the viability, T/C [16] of the same compound?
**A.** 83.4%

**Q.** And the viability, T/C [17]?
**A.** 70.8%

**Q.** What about the viability, T/C [18] of the same compound?
**A.** 55.2%

**Q.** What about the viability, T/C [19] of the same compound?
**A.** 99.9%

**Q.** What about the viability, T/C [20] of the same compound?
**A.** 95.8%

**Q.** And the viability, T/C [21]?
**A.** 104%

**Q.** And the viability, T/C [22]?
**A.** 92%

**Q.** And the viability, T/C [23]?
**A.** 74.7%

**Q.** And the viability, T/C [24]?
**A.** 61%

**Q.** And the viability, T/C (second compound 3.16 µM, first compound 0.0316 µM)?
**A.** 102%

**Q.** What about the viability, T/C (second compound 3.16 µM, first compound 0.1 µM) of the same compound?
**A.** 95.9%

**Q.** What about the viability, T/C (second compound 3.16 µM, first compound 0.316 µM) of the same compound?
**A.** 109%

**Q.** What about the viability, T/C (second compound 3.16 µM, first compound 1 µM) of the same compound?
**A.** 92.7%

**Q.** What about the viability, T/C (second compound 3.16 µM, first compound 3.16 µM) of the same compound?
**A.** 78.1%

**Q.** And the viability, T/C (second compound 3.16 µM, first compound 10 µM)?
**A.** 52%

**Q.** What about the viability, T/C (second compound 10 µM, first compound 0.0316 µM) of the same compound?
**A.** 54.3%

**Q.** What about the viability, T/C (second compound 10 µM, first compound 0.1 µM) of the same compound?
**A.** 59.4%

**Q.** And the viability, T/C (second compound 10 µM, first compound 0.316 µM)?
**A.** 38.5%

**Q.** What about the viability, T/C (second compound 10 µM, first compound 1 µM) of the same compound?
**A.** 33.8%

**Q.** And the viability, T/C (second compound 10 µM, first compound 3.16 µM)?
**A.** 27.5%

**Q.** And the viability, T/C (second compound 10 µM, first compound 10 µM)?
**A.** 8.24%
